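Cells were grown in 96-well plates and exposed to each compound for 48 hours at five concentrations; endpoints were interpolated linearly between bracketing concentrations, or set to the highest concentration if not reached. Here, GI50 denotes the concentration required for 50% inhibition of growth. At the TGI there is no net growth.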
Tests used:
Test in all cases: inhibition of tumour cell growth, NCI panel, 48 h
HCT-15 colon = test system: HCT-15 colon
CCRF-CEM leukemia = test system: CCRF-CEM leukemia
HCT-116 colon = test system: HCT-116 colon
BT-549 breast = test system: BT-549 breast
OVCAR-8 ovarian = test system: OVCAR-8 ovarian
SF-295 CNS = test system: SF-295 CNS
HOP-92 NSCLC = test system: HOP-92 NSCLC
KM12 colon = test system: KM12 colon
U251 CNS = test system: U251 CNS
NCI-H460 lung = test system: NCI-H460 lung
MDA-MB-435 = test system: MDA-MB-435
SW-620 colon = test system: SW-620 colon
UACC-62 melanoma = test system: UACC-62 melanoma
MCF7 breast = test system: MCF7 breast
NCI-H522 lung = test system: NCI-H522 lung
EKVX NSCLC = test system: EKVX NSCLC
SK-MEL-28 melanoma = test system: SK-MEL-28 melanoma
RXF 393 renal = test system: RXF 393 renal
SN12C renal = test system: SN12C renal
SF-268 CNS = test system: SF-268 CNS
MALME-3M melanoma = test system: MALME-3M melanoma
HT29 colon = test system: HT29 colon
LOX IMVI melanoma = test system: LOX IMVI melanoma
HOP-62 NSCLC = test system: HOP-62 NSCLC
CAKI-1 renal = test system: CAKI-1 renal
ACHN renal = test system: ACHN renal
UACC-257 melanoma = test system: UACC-257 melanoma
A549 NSCLC = test system: A549 NSCLC
SNB-75 CNS = test system: SNB-75 CNS
M14 melanoma = test system: M14 melanoma
A498 renal = test system: A498 renal
MOLT-4 leukemia = test system: MOLT-4 leukemia
OVCAR-4 ovarian = test system: OVCAR-4 ovarian
786-0 renal = test system: 786-0 renal
SK-OV-3 ovarian = test system: SK-OV-3 ovarian
DU-145 prostate = test system: DU-145 prostate
IGROV1 ovarian = test system: IGROV1 ovarian
SF-539 CNS = test system: SF-539 CNS
OVCAR-3 ovarian = test system: OVCAR-3 ovarian
PC-3 prostate = test system: PC-3 prostate
RPMI-8226 leukemia = test system: RPMI-8226 leukemia
SK-MEL-2 melanoma = test system: SK-MEL-2 melanoma
TK-10 renal = test system: TK-10 renal
COLO 205 colon = test system: COLO 205 colon
HS 578T breast = test system: HS 578T breast
OVCAR-5 ovarian = test system: OVCAR-5 ovarian
SK-MEL-5 melanoma = test system: SK-MEL-5 melanoma
UO-31 renal = test system: UO-31 renal
K-562 leukemia = test system: K-562 leukemia
SNB-19 CNS = test system: SNB-19 CNS
SR leukemia = test system: SR leukemia
MDA-MB-231 breast = test system: MDA-MB-231 breast
NCI/ADR-RES ovarian = test system: NCI/ADR-RES ovarian
HL-60(TB) leukemia = test system: HL-60(TB) leukemia
T-47D breast = test system: T-47D breast
NCI-H226 lung = test system: NCI-H226 lung
HCC-2998 colon = test system: HCC-2998 colon

Which results are given for `CCOc1ccc([C@H]2C(C(=O)c3ccc(Cl)cc3)C3(N[C@@H]2c2ccccc2)C(=O)Nc2ccc(Br)cc23)cc1` (some centres undefined)?
GI50 (HCT-15 colon): 16.1 µM; TGI (HCT-15 colon): 35.3 µM; GI50 (CCRF-CEM leukemia): 23.1 µM; TGI (CCRF-CEM leukemia): 72 µM; GI50 (HCT-116 colon): 14.6 µM; TGI (HCT-116 colon): 29.7 µM; GI50 (BT-549 breast): 15.6 µM; TGI (BT-549 breast): 29.9 µM; GI50 (OVCAR-8 ovarian): 16.4 µM; TGI (OVCAR-8 ovarian): 32 µM; GI50 (SF-295 CNS): 16.1 µM; TGI (SF-295 CNS): 30.3 µM; GI50 (HOP-92 NSCLC): 7.75 µM; TGI (HOP-92 NSCLC): 21.8 µM; GI50 (KM12 colon): 17.1 µM; TGI (KM12 colon): 49.1 µM; GI50 (U251 CNS): 15 µM; TGI (U251 CNS): 29.8 µM; GI50 (NCI-H460 lung): 16.7 µM; TGI (NCI-H460 lung): 35.5 µM; GI50 (MDA-MB-435): 15.9 µM; TGI (MDA-MB-435): 30.3 µM; GI50 (SW-620 colon): 18.5 µM; TGI (SW-620 colon): 40.9 µM; GI50 (UACC-62 melanoma): 13.3 µM; TGI (UACC-62 melanoma): 27.1 µM; GI50 (MCF7 breast): 14 µM; TGI (MCF7 breast): 36.7 µM; GI50 (NCI-H522 lung): 14.2 µM; TGI (NCI-H522 lung): 28.2 µM; GI50 (EKVX NSCLC): 15.9 µM; TGI (EKVX NSCLC): 35.4 µM; GI50 (SK-MEL-28 melanoma): 16.1 µM; TGI (SK-MEL-28 melanoma): 30.4 µM; GI50 (RXF 393 renal): 13.1 µM; TGI (RXF 393 renal): 26.1 µM; GI50 (SN12C renal): 15.2 µM; TGI (SN12C renal): 31.2 µM; GI50 (SF-268 CNS): 17.3 µM; TGI (SF-268 CNS): 39.4 µM; GI50 (MALME-3M melanoma): 14.7 µM; TGI (MALME-3M melanoma): 28.5 µM; GI50 (HT29 colon): 14.9 µM; TGI (HT29 colon): 31 µM; GI50 (LOX IMVI melanoma): 15.7 µM; TGI (LOX IMVI melanoma): 30.4 µM; GI50 (HOP-62 NSCLC): 14.3 µM; TGI (HOP-62 NSCLC): 28 µM; GI50 (CAKI-1 renal): 13.1 µM; TGI (CAKI-1 renal): 26.2 µM; GI50 (ACHN renal): 15 µM; TGI (ACHN renal): 28.6 µM; GI50 (UACC-257 melanoma): 14.7 µM; TGI (UACC-257 melanoma): 29 µM; GI50 (A549 NSCLC): 13.9 µM; TGI (A549 NSCLC): 28.9 µM; GI50 (SNB-75 CNS): 11.3 µM; TGI (SNB-75 CNS): 23.7 µM; GI50 (M14 melanoma): 15 µM; TGI (M14 melanoma): 30.1 µM; GI50 (A498 renal): 14.3 µM; TGI (A498 renal): 28.8 µM; GI50 (MOLT-4 leukemia): 18.2 µM; TGI (MOLT-4 leukemia): 73.8 µM; GI50 (OVCAR-4 ovarian): 14.3 µM; TGI (OVCAR-4 ovarian): 28.1 µM; GI50 (786-0 renal): 15.4 µM; TGI (786-0 renal): 30.1 µM; GI50 (SK-OV-3 ovarian): 14.5 µM; TGI (SK-OV-3 ovarian): 28.3 µM; GI50 (DU-145 prostate): 17.7 µM; TGI (DU-145 prostate): 38 µM; GI50 (IGROV1 ovarian): 14.2 µM; TGI (IGROV1 ovarian): 31.6 µM; GI50 (SF-539 CNS): 15.9 µM; TGI (SF-539 CNS): 30.5 µM; GI50 (OVCAR-3 ovarian): 17.5 µM; TGI (OVCAR-3 ovarian): 38 µM; GI50 (PC-3 prostate): 13.8 µM; TGI (PC-3 prostate): 27.6 µM; GI50 (RPMI-8226 leukemia): 22 µM; TGI (RPMI-8226 leukemia): 70.8 µM; GI50 (SK-MEL-2 melanoma): 14.1 µM; TGI (SK-MEL-2 melanoma): 27.9 µM; GI50 (TK-10 renal): 13.7 µM; TGI (TK-10 renal): 28.8 µM; GI50 (COLO 205 colon): 15 µM; TGI (COLO 205 colon): 30.1 µM; GI50 (HS 578T breast): 17.9 µM; TGI (HS 578T breast): 47.8 µM; GI50 (OVCAR-5 ovarian): 14.6 µM; TGI (OVCAR-5 ovarian): 29.4 µM; GI50 (SK-MEL-5 melanoma): 18 µM; TGI (SK-MEL-5 melanoma): 32.7 µM; GI50 (UO-31 renal): 12.9 µM; TGI (UO-31 renal): 25.6 µM; GI50 (K-562 leukemia): 25.3 µM; TGI (K-562 leukemia): > 100 µM; GI50 (SNB-19 CNS): 15.2 µM; TGI (SNB-19 CNS): 29.7 µM; GI50 (SR leukemia): 15.5 µM; TGI (SR leukemia): 44 µM; GI50 (MDA-MB-231 breast): 15.8 µM; TGI (MDA-MB-231 breast): 31.8 µM; GI50 (NCI/ADR-RES ovarian): 19.8 µM; TGI (NCI/ADR-RES ovarian): 44.8 µM; GI50 (HL-60(TB) leukemia): 23.1 µM; TGI (HL-60(TB) leukemia): 63.1 µM; GI50 (T-47D breast): 14.2 µM; TGI (T-47D breast): 35.2 µM; GI50 (NCI-H226 lung): 15.1 µM; TGI (NCI-H226 lung): 32.6 µM; GI50 (HCC-2998 colon): 15.7 µM; TGI (HCC-2998 colon): 31 µM

From PubChem BioAssay (NCI)
